Results on two compounds are retold here after ChEMBL document CHEMBL4396934, “Novel α,β-unsaturated hydroxamic acid derivatives overcome cisplatin resistance” (Bioorg Med Chem, 2019).

The subject of test [1] is CAL-27. The test can be described thus: Potentiation of cisplatin-induced apoptosis in human CAL27 cells assessed as increase in caspase-3/7 activation at 0.5 uM preincubated for 48 hrs followed by cisplatin addition and further incubation for 24 hrs by CellEvent caspase 3/7 green detection reagent/Hoechst 33342 staining based arrayscan analysis. Type of test: functional, cell-based.

Another test concerns the target Histone deacetylase. The test can be described thus: Inhibition of HDAC in human CAL27 cells using Boc-Lys(epsilon-Ac)-AMC as substrate preincubated for 18 hrs followed by substrate addition and further incubation for 3 hrs by microplate reader based fluorescence assay. Format: cell-based.
The subject of another test is A2780. The test can be described thus: Antiproliferative activity against human A2780 cells after 72 hrs by microplate reader based MTT assay. To be noted: A2780, 72 h. Format: functional, cell-based.
Test [2] has as its system CAL-27. The test can be described thus: Potentiation of cisplatin-induced cytotoxicity in human CAL27 cells assessed as fold reduction in cisplatin IC50 at 0.5 uM preincubated for 48 hrs followed by cisplatin addition and further incubation for 72 hrs by MTT assay relative to cisplatin alone. Type of test: functional.
The next test deals with Histone deacetylase 4 (Homo sapiens, UniProt P56524). As to the kind of experiment: Inhibition of C-terminal His-tagged/N-terminal GST-tagged recombinant human HDAC4 (627 to 1084 residues) expressed in Baculovirus infected insect cells using Boc-Lys(TFa)-AMC as substrate preincubated for 5 mins followed by substrate addition and further incubation for 90 mins measured after 15 mins by microplate reader based fluorescence assay.
Sequence of Histone deacetylase 4 (P56524 whole entry, the tested form may be a part): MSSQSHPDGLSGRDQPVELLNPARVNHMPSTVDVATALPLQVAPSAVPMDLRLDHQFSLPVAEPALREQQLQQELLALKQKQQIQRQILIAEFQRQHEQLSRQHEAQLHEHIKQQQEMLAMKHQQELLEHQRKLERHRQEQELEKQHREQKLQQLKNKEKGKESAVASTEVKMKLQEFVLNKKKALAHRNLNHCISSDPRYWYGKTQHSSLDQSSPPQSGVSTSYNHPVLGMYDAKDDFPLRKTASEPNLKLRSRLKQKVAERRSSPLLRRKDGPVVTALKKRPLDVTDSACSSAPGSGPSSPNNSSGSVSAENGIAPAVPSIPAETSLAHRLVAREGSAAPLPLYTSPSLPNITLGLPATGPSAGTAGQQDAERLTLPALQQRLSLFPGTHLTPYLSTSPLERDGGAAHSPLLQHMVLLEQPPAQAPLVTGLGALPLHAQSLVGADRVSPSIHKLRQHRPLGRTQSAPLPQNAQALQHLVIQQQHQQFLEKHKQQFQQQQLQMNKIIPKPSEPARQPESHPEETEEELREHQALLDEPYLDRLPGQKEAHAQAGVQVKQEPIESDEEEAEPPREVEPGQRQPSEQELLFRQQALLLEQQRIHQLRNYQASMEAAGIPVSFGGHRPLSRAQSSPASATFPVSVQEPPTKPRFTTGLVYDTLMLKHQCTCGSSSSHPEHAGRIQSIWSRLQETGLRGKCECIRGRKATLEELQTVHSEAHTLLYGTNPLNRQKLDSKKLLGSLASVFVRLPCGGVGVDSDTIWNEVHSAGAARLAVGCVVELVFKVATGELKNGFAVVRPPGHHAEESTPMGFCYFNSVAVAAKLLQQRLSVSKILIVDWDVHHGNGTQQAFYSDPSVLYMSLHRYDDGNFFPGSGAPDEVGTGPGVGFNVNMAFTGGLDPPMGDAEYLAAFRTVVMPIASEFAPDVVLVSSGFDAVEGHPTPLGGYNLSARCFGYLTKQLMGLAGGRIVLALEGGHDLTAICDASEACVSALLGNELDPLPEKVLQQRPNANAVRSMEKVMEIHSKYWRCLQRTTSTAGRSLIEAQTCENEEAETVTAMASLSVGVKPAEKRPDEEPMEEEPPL

The species entered for test [3] is Homo sapiens. As to the kind of experiment: Potentiation of cisplatin-induced apoptosis in human Cal27CisR cells assessed as increase in caspase-3/7 activation at 1 uM preincubated for 48 hrs followed by cisplatin addition and further incubation for 24 hrs by CellEvent caspase 3/7 green detection reagent/Hoechst 33342 staining based arrayscan analysis. Format: functional, cell-based.

Test [4] has as its system CAL-27. As to the kind of experiment: Potentiation of cisplatin-induced apoptosis in human CAL27 cells assessed as increase in accumulation at sub-G1 phase at 0.5 uM preincubated for 48 hrs followed by cisplatin addition and further incubation for 24 hrs by propidium iodide staining based flow cytometry relative to cisplatin alone. Type of test: functional.
Another test addresses T1, Histone deacetylase 8 (Homo sapiens, UniProt Q9BY41).
T1 sequence (Q9BY41 whole entry): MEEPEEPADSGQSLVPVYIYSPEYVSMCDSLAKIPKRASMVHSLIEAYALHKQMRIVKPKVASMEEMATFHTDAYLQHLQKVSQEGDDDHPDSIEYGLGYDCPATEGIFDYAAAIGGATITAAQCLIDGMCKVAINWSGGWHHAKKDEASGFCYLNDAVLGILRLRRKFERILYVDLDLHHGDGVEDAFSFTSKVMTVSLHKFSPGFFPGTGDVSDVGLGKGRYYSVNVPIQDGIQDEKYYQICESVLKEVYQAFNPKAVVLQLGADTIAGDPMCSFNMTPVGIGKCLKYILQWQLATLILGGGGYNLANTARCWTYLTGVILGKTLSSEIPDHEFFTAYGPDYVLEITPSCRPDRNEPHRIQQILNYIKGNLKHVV
As to the kind of experiment: Inhibition of C-terminal His-fusion tagged/N-terminal Strep-2 tagged recombinant human HDAC8 (1 to 377 residues) expressed in insect cells using Boc-Lys(TFa)-AMC as substrate preincubated for 5 mins followed by substrate addition and further incubation for 90 mins measured after 15 mins by microplate reader based fluorescence assay.

The subject of test [5] is CAL-27. As to the kind of experiment: Potentiation of cisplatin-induced apoptosis in human CAL27 cells assessed as caspase-3/7 activity at 0.5 uM preincubated for 48 hrs followed by cisplatin addition and further incubation for 24 hrs treated with 20 uM pan capsase inhibitor QVD for 30 mins prior to compound addition by CellEvent caspase 3/7 green detection reagent/Hoechst 33342 staining based arrayscan analysis. Type of test: functional, cell-based.

Test [6] has as its system CAL-27. As to the kind of experiment: Induction of apoptosis in human CAL27 cells assessed as accumulation at sub-G1 phase at 0.5 uM after 48 hrs by propidium iodide staining based flow cytometry. Type of test: functional, cell-based. A general note: In flow cytometry, cells or beads pass a laser one at a time.
The species entered for test [7] is Homo sapiens. As to the kind of experiment: Induction of apoptosis in human Cal27CisR cells assessed as increase in caspase-3/7 activation at 1 uM after 48 hrs by CellEvent caspase 3/7 green detection reagent/Hoechst 33342 staining based arrayscan analysis. Type of test: functional, cell-based.
Test [8] is described as follows: Potentiation of cisplatin-induced apoptosis in human Cal27CisR cells assessed as accumulation at sub-G1 phase at 1 uM preincubated for 48 hrs followed by cisplatin addition and further incubation for 24 hrs by propidium iodide staining based flow cytometry (reference value: 8.3 +/- 1.06%). Type of test: functional.
The nature of test [9]: Potentiation of cisplatin-induced apoptosis in human Cal27CisR cells assessed as increase in accumulation at sub-G1 phase at 1 uM preincubated for 48 hrs followed by cisplatin addition and further incubation for 24 hrs by propidium iodide staining based flow cytometry relative to cisplatin alone. Format: functional.
Test [10] concerns CAL-27. The test can be described thus: Antiproliferative activity against human CAL27 cells after 72 hrs by microplate reader based MTT assay. To be noted: CAL-27, 72 h. Type of test: functional, cell-based.

Each structure is given as a SMILES string. The source made the active and inactive calls. The calls are words filed in the database; no cut-off is given here.

As to `COc1ccc(NC(=O)NOCc2ccc(/C=C/C(=O)NO)cc2)cc1`, the outcome in the test with CAL-27 [1], in the test listed under Homo sapiens [3] and in the test listed under Homo sapiens [7] was Active. The IC50 – broadly, the concentration that inhibits the measured activity by half – against Histone deacetylase was determined as 490 nM; with A2780, 1150 nM; with CAL-27 [10] it was 1700 nM. Moreover, the “Ratio IC50” value in the test with CAL-27 [2] worked out at 2.95. Moreover, the inhibition constant Ki (commonly a dissociation constant, usually derived from enzyme kinetics or from competition with a known ligand) on Histone deacetylase 4 came out at 25200 nM; at Histone deacetylase 8, 4210 nM. For the same compound, the “fold change (FC)” value in the test on CAL-27 [4] is 3; in [9], 6. For the same compound, the result in the test with CAL-27 [5] and with CAL-27 [6] was inactive. In addition, the Activity in [8] is 52.2%.

In the case of `O=C(/C=C/c1ccc(CONC(=O)c2ccc3ccccc3n2)cc1)NO`, the result in the test with CAL-27 [1], in the test listed under Homo sapiens [3] and in the test filed under Homo sapiens [7] was Active. Further, the IC50 came out at 270 nM against Histone deacetylase, 790 nM in the test with A2780 and 800 nM in the test with CAL-27 [10]. In the test with CAL-27 [2], the “Ratio IC50” value is 5.69. Besides, the Ki on Histone deacetylase 4 amounted to 9540 nM; on Histone deacetylase 8, 4700 nM. For the same compound, the “fold change (FC)” value with CAL-27 [4] was 3; in [9], 4.7. Also, the outcome with CAL-27 [5] and in the test on CAL-27 [6] was inactive. In addition, in test [8], the Activity amounted to 38.9%.
